Source: patent US8334364B2, “High-molecular weight derivative of nucleic acid antimetabolite” (priority 2006, dated 2012)
Where a name gives a salt, the structure may show the parent alone.

What was measured:
[1] = system: mouse colon cancer, Colon26; experiment: Antitumor effect against tumor-bearing mouse (1); assay type: in vivo; settings: once intravenously, 7th day after initiation of administration, average ± SD, volume on day of initiation = 1.0
Text: Tumor of mouse colon cancer, Colon26, maintained by serial subcutaneous subculture in mice, was minced into about 2-mm square blocks, and the blocks were transplanted subcutaneously on the dorsal part of a mouse using a trocar. On the 7th day after tumor transplantation, the compound of Example 1 (indicated as Compound 1 in Table 2) and the compound of Example 2 (indicated as Compound 2 in Table 2), respectively dissolved in physiological saline, and gemcitabine hydrochloride as a control drug dissolved in a 5% glucose injection solution were respectively administered once intravenously at the doses indicated in Table 2. The tumor volumes on the day of initiation of administration and on the 7th day after the initiation of administration were calculated by the following equation, and the relative tumor volumes on the day of initiation of administration and on the 7th day after the initiation of administration were determined.

[2] = system: mouse colon cancer, Colon26; experiment: Antitumor effect against tumor-bearing mouse (2); assay type: in vivo; settings: once intravenously, 8th day after initiation of administration, average ± SD, volume on day of initiation = 1.0
Text: Tumor of mouse colon cancer, Colon26, maintained by serial subcutaneous subculture in mice, was minced into about 2-mm square blocks, and the blocks were transplanted subcutaneously on the dorsal part of a mouse. On the 7th day after tumor transplantation, the compound of Example 3 (indicated as Compound 3 in Table 3) and the compound of Example 4 (indicated as Compound 4 in Table 3), respectively dissolved in physiological saline, and gemcitabine hydrochloride as a control drug dissolved in a 5% glucose injection solution were respectively administered once intravenously at the doses indicated in Table 3. The tumor volumes on the day of initiation of administration and on the 8th day after the initiation of administration were calculated in the same manner as in Test Example 3, and the relative tumor volumes on the day of initiation of administration and on the 8th day after the initiation of administration were determined.

[3] = dose 200 mg/kg in terms of gemcitabine hydrochloride

How did the Relative tumor volume ([1]; dose 100 mg/kg in terms of gemcitabine hydrochloride) turn out when `Nc1ccn([C@@H]2O[C@H](CO)[C@@H](O)C2(F)F)c(=O)n1` [Control drug, gemcitabine hydrochloride] was run?
Its Relative tumor volume is 3.9 ± 0.5.

What about the Relative tumor volume [1, 3] of the same compound?
Its Relative tumor volume is 3.4 ± 0.6.

What about the Relative tumor volume ([2]; dose 40 mg/kg in terms of gemcitabine hydrochloride) of the same compound?
Its Relative tumor volume is 5.3 ± 1.1.

And the Relative tumor volume [2, 3]?
Its Relative tumor volume is 4.8 ± 1.7.
